We go through 1 cell line from the supplement of paper PMC10307832.

Common to all, as to experiment: relative viability (nuclei count vs DMSO), 5 days (fraction); higher = more cells survive
Compound in the assay “BI-2536 + Trametinib”: CC[C@@H]1C(=O)N(C)c2cnc(Nc3ccc(C(=O)NC4CCN(C)CC4)cc3OC)nc2N1C1CCCC1 [BI-2536] + CC(=O)Nc1cccc(-n2c(=O)n(C3CC3)c(=O)c3c(Nc4ccc(I)cc4F)n(C)c(=O)c(C)c32)c1 [Trametinib] (partner 0.02 µM)
The essentials:
(§1)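 Five library-drug doses in √10 steps were combined with a fixed anchor-drug dose, or a single drug was given alone, by pin tool to lung cancer cell lines in 1536-well plates the day after seeding. Nuclei were stained and counted after 5 days. Relative viability is the nuclei count in treated wells over that in vehicle wells, taken as the median of duplicate plates.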

Compound in assay [1]: CC1CC(=O)N(C2=CN=C(N=C2N1C3CCCC3)NC4=C(C=C(C=C4)C(=O)NC5CCN(CC5)C)OC)C [NPK76-II-72-1] + Cc1nc(Nc2ncc(C(=O)Nc3c(C)cccc3Cl)s2)cc(N2CCN(CCO)CC2)n1 [Dasatinib] (partner 0.075 µM)
An outline of the steps: as §1

Compound in the assay “BI-2536 + OSI-027”: CC[C@@H]1C(=O)N(C)c2cnc(Nc3ccc(C(=O)NC4CCN(C)CC4)cc3OC)nc2N1C1CCCC1 [BI-2536] + COc1cccc2cc(-c3nc([C@H]4CC[C@H](C(=O)O)CC4)n4ncnc(N)c34)[nH]c12 [OSI-027] (partner 0.5 µM)
The essentials: as §1

Compound in the assay “BI-2536 + Navitoclax”: CC[C@@H]1C(=O)N(C)c2cnc(Nc3ccc(C(=O)NC4CCN(C)CC4)cc3OC)nc2N1C1CCCC1 [BI-2536] + CC1(C)CCC(c2ccc(Cl)cc2)=C(CN2CCN(c3ccc(C(=O)NS(=O)(=O)c4ccc(N[C@H](CCN5CCOCC5)CSc5ccccc5)c(S(=O)(=O)C(F)(F)F)c4)cc3)CC2)C1 [Navitoclax] (partner 0.5 µM)
The essentials: as §1

As to UMC-11, the relative viability turned out to be 0.489 in the assay with BI-2536 + Trametinib (first compound 0.01 µM); 0.637 with BI-2536 + Trametinib (first compound 0.03162 µM); 0.173 in the assay with BI-2536 + Trametinib (first compound 0.1 µM); 0.175 with BI-2536 + Trametinib (first compound 0.3162 µM); 0.521 with BI-2536 + Trametinib (first compound 1 µM); 0.45 in assay [1] (first compound 0.01 µM). Further, the relative viability in assay [1] (first compound 0.03162 µM) worked out at 0.509; in assay [1] (first compound 0.1 µM) it was 0.441; in assay [1] (first compound 1 µM), 0.447; with BI-2536 + OSI-027 (first compound 0.01 µM), 0.5; with BI-2536 + OSI-027 (first compound 0.03162 µM), 0.27; in the assay with BI-2536 + OSI-027 (first compound 0.1 µM), 0.138. Moreover, the relative viability with BI-2536 + OSI-027 (first compound 0.3162 µM) worked out at 0.192; in the assay with BI-2536 + OSI-027 (first compound 1 µM) it was 0.158; in the assay with BI-2536 + Navitoclax (first compound 0.01 µM), 0.279; with BI-2536 + Navitoclax (first compound 0.03162 µM), 0.286; in the assay with BI-2536 + Navitoclax (first compound 0.1 µM), 0.166; with BI-2536 + Navitoclax (first compound 0.3162 µM), 0.136. Also, in the assay with BI-2536 + Navitoclax (first compound 1 µM), the relative viability was 0.112.
